Values quoted from earlier work in patent US20180298405A1, “METHODS AND COMPOSITIONS TO INCREASE HUMAN SOMATIC CELL NUCLEAR TRANSFER (SCNT) EFFICIENCY BY REMOVING HISTONE H3-LYSINE TRIMETHYLATION, AND DERIVATION OF HUMAN NT-ESC” (CHILDREN'S MEDICAL CENTER CORPORATION, priority 2015, published 2018).

System: SETDB1 H3K9me3 HMTase; H3K27me3 and H3K9me3
Settings: Lee et al., 2013; cited from earlier work

Nc1nccc2c1ncn2[C@@H]1C=C(CO)[C@@H](O)[C@H]1O [3-Deazaneplanocin A]
effect on H3K27me3 and H3K9me3 levels: reduced levels of both H3K27me3 and H3K9me3
effect on SETDB1 H3K9me3 HMTase: decrease of SETDB1 H3K9me3 HMTase
